Data as given in patent publication EP0393604B1, “6,11-Dihydro-5H-pyrido(2,3-b)(1,5,)benzodiazepin-5-ones and thiones and their use in the prevention or treatment of AIDS” (priority 1989, dated 1990).
Where two headings read alike, the source gives them in different places.

Target: T1, HIV-1 RT (Human immunodeficiency virus type 1 group M subtype B, UniProt P03367)
T1 construct: Reverse transcriptase enzyme from the LAV strain of Human Immunodeficiency Virus (HIV-1) (1) was isolated from the bacterial strain JM109; made in house; host or cells: E. coli JM109, clone pBRTprt1+ in vector pIBI21, lac promoter, IPTG induction
Assay: Reverse Transcriptase (RT) Assay: inhibition of RNA-dependent DNA polymerase activity
Format: biochemical
Conditions: for inhibition at 10 µg/mL: read-out: RT Inhibition % @ 10µg/ml
Text: Utilizing the Reverse Transcriptase (RT) Assay descibed below, compounds can be tested for their ability to inhibit the RNA-dependent DNA polymerase activity of HIV-1 RT. Certain specific compounds of formula I described in the Examples which appear below, were so tested. The above-described compounds of formula IA were also so tested.
Among the enzymes for which Human Immunodeficiency Virus (HIV-1) encodes is a reverse transcriptase (1), so-named because it transcribes a DNA copy from an RNA template. This activity can be quantitatively measured in a cell-free enzyme assay which has been previously described (2), and is based upon the observation that reverse transcriptase is able to use a synthetic template [poly r(C) primed with oligo d(G)] to transcribe a radio-labelled, acid-precipitable DNA strand utilizing ^3H-dGTP as a substrate.
Reverse transcriptase enzyme from the LAV strain of Human Immunodeficiency Virus (HIV-1) (1) was isolated from the bacterial strain JM109 (3) expressing the DNA clone pBRTprt1+ (2) which is under the control of the lac promoter in the expression vector pIBI21 (4). An overnight culture grown in 2XYT medium (37°C, 225 rpm) (5) supplemented with 100 µg/ml ampicillin for positive selection is inoculated at a 1:40 dilution into M9 medium supplemented with 10µg/ml thiamine, 0.5% casamino acids, and 50 µg/ml ampicillin (5). The culture is incubated (37°C, 225 rpm) until it reaches an OD540 of 0.3-0.4. At that time the repressor inhibitor IPTG (isopropyl b-D-thiogalactopyranoside) is added to 0.5mM and the mixture is incubated for 2 additional hours. Bacteria are pelleted, resuspended in a 50mM Tris, 0.6mM EDTA, 0.375M NaCl buffer and digested by the addition of lysozyme (1mg/ml) for 30 minutes on ice. The cells are lysed by the addition of 0.2% NP-40 and brought to 1M NaCl.
After removal of the insoluble debris by centrifugation, the protein is precipitated by the addition of 3 volumes of water-saturated ammonium sulfate. The enzyme is pelleted, resuspended in RT buffer (50mM Tris pH 7.5. 1mM EDTA, 5mM DTT, 0.1% NP-40, 0.1M NaCl, and 50% glycerol), and stored at -70°C for further use.
The 2X concentrated stock reaction mixture is aliquoted and stored at -20°C. The mixture is stable and thawed for use in each assay. This enzyme assay has been adapted to a 96 well microtiter plate system, and has been previously described (6). Tris buffer (50 mM, pH 7.4), vehicle (solvent diluted to match the compound dilution), or compounds in vehicle are dispensed into 96-well microtiter plates (10µl/well: 3 wells/compound). The HIV-1 RT enzyme is thawed and diluted in 50mM Tris pH 7.4 so that fifteen µl of diluted enzyme contain 0.001 Unit (one unit is that amount of enzyme to transform 1 micromole of substrate per minute at 25°C) and 15µl are dispensed per well. Twenty µl of 0.12 - 0.5M EDTA are added to the first three wells of the microtiter plate. EDTA chelates the Mg^++ present and prevents reverse transcription. This group serves as background polymerization which is subtracted from all other groups. Twenty-five ul of the 2X reaction mixture are added to all wells and the assay is allowed to incubate at room temperature for 60 minutes. The assay is terminated by precipitating the DNA in each well with 50µl of trichloracetic acid (TCA) (10% w/v) in sodium pyrophosphate (1% w/v). The microtiter plate is incubated for 15 minutes at 4°C and the precipitate is fixed onto #30 glass fiber paper (Schleicher & Schuell) using a Skatron semi-automatic harvester. The filters are then washed with additional TCA (5%) containing sodium pyrophosphate (1%), rinsed with aqueous ethanol (70%), dried, and transferred to scintillation vials (6). Each vial receives 2 mls of scintillation cocktail and is counted in a Beckman beta counter. […]

[1] = 10µg/ml, Table I, compounds of formula I
[2] = 10µg/ml, Table II, known compounds of formula IA

| Compound | inhibition at 10 µg/mL [1] | also measured |
| --- | --- | --- |
| CCN1c2ccccc2NC(=O)c2cccnc21 [Example 23, 6,11-Dihydro-11-ethyl-5H-pyrido[2,3-b][1,5]benzodiazepin-5-one] | 100% |  |
| CN1C(=O)c2cccnc2N(CC(=O)OC(C)(C)C)c2ccccc21 [Example 26, 6,11-Dihydro-11-(t-butoxycarbonyl)methyl-6-methyl-5H-pyrido[2,3-b][1,5] benzodiazepin-5-one] | 81% |  |
| CCN1C(=O)c2cccnc2Nc2cc(C)c(C)cc21 [Formula IA f, 6-ethyl-8,9-dimethyl-6,11-dihydro-5H-pyrido[2,3-b][1,5]benzodiazepin-5-one] |  | inhibition at 10 µg/mL [2]: 95% |
| CCN1c2ccccc2N(CF)C(=O)c2cccnc21 [Example 34, 6,11-Dihydro-11-ethyl-6-fluoromethyl-5H-pyrido-[2,3-b][1,5]benzodiazepin-5-one] | 85% |  |
| CN1C(=O)c2cccnc2N(CCF)c2ccccc21 [Example 33, 6,11-Dihydro-11-(2-fluoroethyl)-6-methyl-5H-pyrido[2,3-6][1,5]benzodiazepin-5-one] |  | inhibition at 10 µg/mL: 97% |
| CCN1C(=O)c2cccnc2N(CC)c2ccccc21 [Example 21, 6,11-Diethyl-6,11-dihydro-5H-pyrido[2,3-b][1,5]benzodiazepin-5-one] | 96% |  |
| Cc1cc2c(cc1C)N(C)C(=O)c1cccnc1N2 [Formula IA e, 6,8,9-trimethyl-6,11-dihydro-5H-pyrido[2,3-b][1,5]benzodiazepin-5-one] |  | RT Inhibition % @ 10µg/ml [2]: 65% |
| CCN1C(=O)c2cccnc2Nc2ccccc21 [Formula IA d, 6-ethy-6,11-dihydro-5H-pyrido[2,3-b][1,5]benzodiazepin-5-one] |  | inhibition at 10 µg/mL [2]: 69% |
| CN1C(=O)c2cccnc2N(CCO)c2ccccc21 [Example 7, 6,11-Dihydro-11-(2-hydroxyethyl)-6-methyl-5H-pyrido[2,3-b][1,5]benzodiazepin-5-one] | 50% |  |
| CCCN1C(=O)c2cccnc2N(C)c2ccccc21 [Example 12, 6,11-Dihydro-11-methyl-6-propyl-5H-pyrido[2,3-b][1,5]benzodiazepin-5-one] | 89% |  |
| Cc1cc2c(cc1C)N(C)C(=O)c1cccnc1N2 [Example 28, 6,11-Dihydro-6,8,9-trimethyl-5H-pyrido[2,3-b][1,5]benzodiazepin-5-one] | 65% |  |
| CN1C(=O)c2cccnc2Nc2ccccc21 [Formula IA b, 6-methyl-6,11-dihydro-5H-pyrido[2,3-b][1,5]benzodiazepin-5-one] |  | inhibition at 10 µg/mL [2]: 43% |
| CCN1c2ccccc2NC(=S)c2cccnc21 [Example 24, 6,11-Dihydro-11-ethyl-5H-pyrido[2,3-b][1,5]benzodiazepin-5-thione] |  | inhibition at 10 µg/mL: 100% |
| CCN1C(=O)c2cccnc2Nc2cc(C)ccc21 [Formula IA h, 6-ethyl-9-methyl-6,11-dihydro-5H-pyrido[2,3-b][1,5]benzodiazepin-5-one] |  | inhibition at 10 µg/mL [2]: 78% |
| CC(C)CN1C(=O)c2cccnc2Nc2ccccc21 [Formula IA g, 6-isobutyl-6,11-dihydro-5H-pyrido[2,3-b][1,5]benzodiazepin-5-one] |  | inhibition at 10 µg/mL [2]: 33% |
| CC(=O)N1c2ccccc2N(C)C(=O)c2cccnc21 [Example 18, 11-Acetyl-6,11-dihydro-6-methyl-5H-pyrido[2,3-b][1,5]benzodiazepin-5-one] | 29% |  |
| CC(C)N1C(=O)c2cccnc2N(C)c2ccccc21 [Example 13, 6,11-Dihydro-11-methyl-6-methylethyl-5H-pyrido[2,3-b][1,5]benzodiazepin-5-one] | 91% |  |
| CCN1c2ccc(C(=O)OC)cc2N(C)C(=O)c2cccnc21 [Example 30, 6,11-Dihydro-8-methoxycarbonyl-11-ethyl-6-methyl-5H-pyrido[2,3-b][1,5] benzodiazepin-5-one] | 94% |  |
| CN1c2ccccc2NC(=O)c2cccnc21 [Example 1, 6,11-Dihydro-11-methyl-5H-pyrido[2,3-b][1,5]benzodiazepin-5-one] | 37% |  |
| O=C1Nc2ccccc2Nc2ncccc21 [Formula IA c, 6,11-dihydro-5H-pyrido[2,3-b][1,5]benzodiazepin-5-one] |  | inhibition at 10 µg/mL [2]: 22% |
| CCCCN1c2ccccc2N(C)C(=O)c2cccnc21 [Example 6, 11-Butyl-6,11-dihydro-6-methyl-5H-pyrido[2,3-b][1,5]-benzodiazepin-5-one] | 46% |  |
| Cc1ccc2c(c1)N(C)C(=O)c1c(C)cc(C)nc1N2 [Formula IA a, 2,4,6,8-tetramethyl-6,11-dihydro-5H-pyrido[2,3-b][1,5]benzodiazepin-5-one] |  | inhibition at 10 µg/mL [2]: 58% |
| CN1C(=O)c2cccnc2N(C)c2ccccc21 [Example 10, 6,11-Dihydro-6,11-dimethyl-5H-pyrido[2,3-b][1,5]benzodiazepin-5-one] | 68% |  |

Continued, in another order:

| inhibition at 10 µg/mL [1] | Compound | also measured |
| --- | --- | --- |
| 92% | CCN1C(=O)c2cccnc2Nc2cccc(C)c21 [Example 31, 6,11-Dihydro-6-ethyl-7-methyl-5H-pyrido[2,3-b][1,5]benzodiazepin-5-one] |  |
| 88% | CCN1C(=O)c2cccnc2N(C)c2ccccc21 [Example 11, 6,11-Dihydro-6-ethyl-11-methyl-5H-pyrido[2,3-b][1,5]benzodiazepin-5-one] |  |
| 69% | CSCN1C(=O)c2cccnc2N(CSC)c2cc(Cl)ccc21 [Example 20, 6,11-bis-(methylthiomethyl)-9-chloro-6,11-dihydro-5H-pyrido-[2,3-b][1,5]benzodiazepin-5-one] |  |
| 44% | Cc1cc(C)c2c(n1)N(C)c1cc(C)c(C)cc1N(C)C2=O [Example 16, 6,11-Dihydro-2,4,6,8,9,11-hexamethyl-5H-pyrido[2,3-b][1,5]benzodiazepin-5-one] |  |
| 51% | Cc1cccc2c1NC(=O)c1cccnc1N2 [Example 32, 6,11-Dihydro-7-methyl-5H-pyrido[2,3-b][1,5]benzodiazepin-5-one] |  |
| 73% | CN1C(=O)c2cccnc2N(Cc2ccccc2)c2ccccc21 [Example 25, 6,11-Dihydro-11-benzyl-6-methyl-5H-pyrido[2,3-b][1,5]benzodiazepin-5-one] |  |
| 99% | CCN1c2cc(C)c(C)cc2N(C)C(=O)c2cccnc21 [Example 29, 6,11-Dihydro-11-ethyl-6,8,9-trimethyl-5H-pyrido[2,3-b][1,5]benzodiazepin-5-one] |  |
| 92% | CCCN1c2ccccc2N(C)C(=O)c2cccnc21 [Example 3, 6,11-Dihydro-6-methyl-11-propyl-5H-pyrido[2,3-b][1,5]benzodiazepin-5-one] |  |
| 75% | CCCCN1C(=O)c2cccnc2N(C)c2ccccc21 [Example 14, 6-Butyl-6,11-dihydro-11-methyl-5H-pyrido[2,3-b][1,5] benzodiazepin-5-one] |  |
| 64% | CCOC(=O)CN1c2ccccc2N(C)C(=O)c2cccnc21 [Example 27, 6,11-Dihydro-11-(ethoxycarbonyl)methyl-6-methyl-5H-pyrido[2,3-b][1,5] benzodiazepin-5-one] |  |
